{"source": "ChEMBL document CHEMBL5726336", "about": "“Arylquinazolines” (2017)", "biological_target": "DNA-dependent protein kinase catalytic subunit (Homo sapiens, UniProt P78527)", "sequence (P78527 whole entry)": "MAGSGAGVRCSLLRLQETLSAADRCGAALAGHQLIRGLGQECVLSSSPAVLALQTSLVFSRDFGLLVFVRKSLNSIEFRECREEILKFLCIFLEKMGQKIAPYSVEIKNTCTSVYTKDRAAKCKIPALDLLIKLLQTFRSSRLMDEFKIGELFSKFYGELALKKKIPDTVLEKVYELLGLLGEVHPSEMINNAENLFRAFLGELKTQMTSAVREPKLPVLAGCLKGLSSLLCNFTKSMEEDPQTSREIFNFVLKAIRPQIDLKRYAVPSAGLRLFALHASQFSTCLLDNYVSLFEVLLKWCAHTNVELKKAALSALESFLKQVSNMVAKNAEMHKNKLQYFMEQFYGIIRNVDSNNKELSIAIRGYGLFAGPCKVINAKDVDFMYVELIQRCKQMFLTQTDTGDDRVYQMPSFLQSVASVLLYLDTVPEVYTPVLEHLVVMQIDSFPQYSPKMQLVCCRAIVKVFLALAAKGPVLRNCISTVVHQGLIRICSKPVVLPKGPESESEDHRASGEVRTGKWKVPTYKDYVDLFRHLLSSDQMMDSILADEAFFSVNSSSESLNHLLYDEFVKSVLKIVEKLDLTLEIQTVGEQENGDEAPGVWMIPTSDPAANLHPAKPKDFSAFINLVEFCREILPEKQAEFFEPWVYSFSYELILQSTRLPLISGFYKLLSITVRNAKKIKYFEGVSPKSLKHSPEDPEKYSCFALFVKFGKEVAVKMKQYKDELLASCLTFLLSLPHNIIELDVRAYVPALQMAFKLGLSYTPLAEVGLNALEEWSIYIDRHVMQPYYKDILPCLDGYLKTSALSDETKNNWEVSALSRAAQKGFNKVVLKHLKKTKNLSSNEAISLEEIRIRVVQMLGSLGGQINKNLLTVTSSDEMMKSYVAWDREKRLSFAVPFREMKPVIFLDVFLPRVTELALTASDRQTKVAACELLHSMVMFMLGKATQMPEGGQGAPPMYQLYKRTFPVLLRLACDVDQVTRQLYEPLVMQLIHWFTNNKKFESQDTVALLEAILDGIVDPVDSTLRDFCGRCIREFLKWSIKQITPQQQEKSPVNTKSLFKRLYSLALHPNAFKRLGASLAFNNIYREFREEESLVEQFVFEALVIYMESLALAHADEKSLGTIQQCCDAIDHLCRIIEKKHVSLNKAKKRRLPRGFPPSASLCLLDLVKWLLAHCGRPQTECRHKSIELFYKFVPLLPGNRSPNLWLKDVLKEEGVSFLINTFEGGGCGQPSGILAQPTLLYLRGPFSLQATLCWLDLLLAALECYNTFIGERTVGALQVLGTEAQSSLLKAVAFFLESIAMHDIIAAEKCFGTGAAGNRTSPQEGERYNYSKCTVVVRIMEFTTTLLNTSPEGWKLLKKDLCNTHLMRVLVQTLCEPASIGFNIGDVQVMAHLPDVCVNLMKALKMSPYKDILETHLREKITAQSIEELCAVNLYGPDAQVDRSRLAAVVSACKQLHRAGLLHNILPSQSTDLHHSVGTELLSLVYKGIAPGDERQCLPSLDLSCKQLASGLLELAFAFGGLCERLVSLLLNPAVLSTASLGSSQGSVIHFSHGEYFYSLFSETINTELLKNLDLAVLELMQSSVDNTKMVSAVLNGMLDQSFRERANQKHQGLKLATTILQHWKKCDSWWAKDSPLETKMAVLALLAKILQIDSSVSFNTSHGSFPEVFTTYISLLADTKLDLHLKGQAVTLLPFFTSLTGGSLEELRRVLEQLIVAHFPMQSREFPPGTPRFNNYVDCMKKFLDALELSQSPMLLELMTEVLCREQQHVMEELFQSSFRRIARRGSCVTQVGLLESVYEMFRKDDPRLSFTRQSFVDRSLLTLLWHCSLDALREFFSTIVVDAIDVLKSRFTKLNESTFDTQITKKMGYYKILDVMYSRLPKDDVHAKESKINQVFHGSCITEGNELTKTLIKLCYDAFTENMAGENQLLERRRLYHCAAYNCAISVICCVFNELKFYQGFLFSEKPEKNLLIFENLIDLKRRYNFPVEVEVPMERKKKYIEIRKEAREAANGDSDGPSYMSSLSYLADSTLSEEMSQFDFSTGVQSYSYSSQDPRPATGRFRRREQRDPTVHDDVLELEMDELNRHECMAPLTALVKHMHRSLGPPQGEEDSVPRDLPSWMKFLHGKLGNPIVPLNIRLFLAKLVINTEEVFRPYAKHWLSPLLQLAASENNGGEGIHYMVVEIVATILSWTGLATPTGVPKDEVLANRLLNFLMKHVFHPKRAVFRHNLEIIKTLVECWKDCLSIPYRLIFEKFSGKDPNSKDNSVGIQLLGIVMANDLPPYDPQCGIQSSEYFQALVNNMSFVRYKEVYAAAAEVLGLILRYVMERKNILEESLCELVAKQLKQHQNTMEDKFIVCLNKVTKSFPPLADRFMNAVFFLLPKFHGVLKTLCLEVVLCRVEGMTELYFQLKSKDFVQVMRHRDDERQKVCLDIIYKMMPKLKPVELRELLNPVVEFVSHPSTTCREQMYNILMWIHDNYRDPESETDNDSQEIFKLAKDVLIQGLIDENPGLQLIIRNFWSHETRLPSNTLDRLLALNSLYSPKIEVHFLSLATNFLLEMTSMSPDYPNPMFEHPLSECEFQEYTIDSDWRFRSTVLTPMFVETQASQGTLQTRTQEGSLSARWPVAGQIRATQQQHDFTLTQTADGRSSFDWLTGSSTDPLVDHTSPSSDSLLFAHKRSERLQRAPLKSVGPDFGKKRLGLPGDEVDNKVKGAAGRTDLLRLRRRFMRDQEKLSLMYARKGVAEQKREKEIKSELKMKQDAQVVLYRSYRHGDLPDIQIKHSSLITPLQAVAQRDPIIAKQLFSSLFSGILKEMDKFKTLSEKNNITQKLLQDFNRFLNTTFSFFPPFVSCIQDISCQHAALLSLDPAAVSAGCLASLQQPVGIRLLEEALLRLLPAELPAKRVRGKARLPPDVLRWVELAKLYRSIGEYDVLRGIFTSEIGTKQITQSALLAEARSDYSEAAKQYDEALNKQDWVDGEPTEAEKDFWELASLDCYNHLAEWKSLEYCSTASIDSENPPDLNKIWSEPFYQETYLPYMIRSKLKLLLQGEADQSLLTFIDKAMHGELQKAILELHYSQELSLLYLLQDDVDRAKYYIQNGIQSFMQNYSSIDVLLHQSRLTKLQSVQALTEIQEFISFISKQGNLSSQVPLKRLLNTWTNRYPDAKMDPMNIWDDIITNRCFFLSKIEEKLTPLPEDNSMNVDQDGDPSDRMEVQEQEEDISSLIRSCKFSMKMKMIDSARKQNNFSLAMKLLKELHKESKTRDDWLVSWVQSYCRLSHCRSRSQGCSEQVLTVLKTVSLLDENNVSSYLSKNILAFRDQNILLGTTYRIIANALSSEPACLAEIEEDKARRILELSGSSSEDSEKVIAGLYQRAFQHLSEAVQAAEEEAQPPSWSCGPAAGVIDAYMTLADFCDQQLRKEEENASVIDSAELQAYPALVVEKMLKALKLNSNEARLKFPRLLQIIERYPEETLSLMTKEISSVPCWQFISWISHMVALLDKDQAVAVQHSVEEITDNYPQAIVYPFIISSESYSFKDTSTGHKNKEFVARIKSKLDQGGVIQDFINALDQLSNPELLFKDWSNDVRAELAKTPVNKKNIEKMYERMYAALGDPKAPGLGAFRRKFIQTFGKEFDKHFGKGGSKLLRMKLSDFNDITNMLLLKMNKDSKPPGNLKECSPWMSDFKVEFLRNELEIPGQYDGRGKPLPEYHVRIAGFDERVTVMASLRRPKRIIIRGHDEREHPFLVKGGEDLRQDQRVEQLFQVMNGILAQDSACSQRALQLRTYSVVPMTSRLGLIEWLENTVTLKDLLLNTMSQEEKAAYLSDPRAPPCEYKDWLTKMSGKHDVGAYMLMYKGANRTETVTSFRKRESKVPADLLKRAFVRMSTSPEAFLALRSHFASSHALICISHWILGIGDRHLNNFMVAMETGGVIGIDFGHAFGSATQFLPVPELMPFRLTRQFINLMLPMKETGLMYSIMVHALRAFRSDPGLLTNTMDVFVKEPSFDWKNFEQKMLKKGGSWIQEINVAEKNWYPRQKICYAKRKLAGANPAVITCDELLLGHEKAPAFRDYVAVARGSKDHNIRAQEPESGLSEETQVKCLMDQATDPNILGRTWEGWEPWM", "experiment": "Biochemical Assay: The kinase assay was carried out in streptavidin-coated […] microtitre flashplates. […] The reaction was stopped using 50 ul/well of 200 mM EDTA. After incubation for a further 30 min at room temperature, the liquid was removed. Each well was washed three times with 100 ul of 0.9% saline solution. A nonspecific reaction (blank value) was determined using 10 uM of an innate kinase inhibitor. The radioactivity measurement was carried out using a TopCount. IC50 values were calculated in RS1.", "data": [{"compound": "CCNCc1csc(C(O)c2cc(-c3ncnc4cc(N5CCOCC5)ccc34)c(F)cc2Cl)n1", "note": "(stereo unspecified)", "values": [{"measurement": "IC50", "result": "7 to 30", "unit": "nM"}]}]}
